Test results taken from patent US12559464B2, “Quinazolinone dione compounds and uses thereof” (Edgewise Therapeutics, Inc., priority 2023, dated 2026).

Columns and labels:
[1] = target: T1, myosin ATPase, Porcine Ventricle myofibrils (Sus scrofa, UniProt P79293); assay: Myofibril ATPase assay, porcine ventricle myofibrils; assay type: biochemical, porcine (Yucatan minipigs); conditions: concentration required to reduce myosin ATP-ase activity by 25%; Porcine Ventricle Prep pCa 25 GEOM_MEAN
T1 construct: Myofibrils from porcine cardiac muscle was isolated from the left ventricle of Yucatan minipigs; tissue Exemplar Genetics; host or cells: left ventricle of Yucatan minipigs, myofibrils
T1 sequence (P79293 whole entry): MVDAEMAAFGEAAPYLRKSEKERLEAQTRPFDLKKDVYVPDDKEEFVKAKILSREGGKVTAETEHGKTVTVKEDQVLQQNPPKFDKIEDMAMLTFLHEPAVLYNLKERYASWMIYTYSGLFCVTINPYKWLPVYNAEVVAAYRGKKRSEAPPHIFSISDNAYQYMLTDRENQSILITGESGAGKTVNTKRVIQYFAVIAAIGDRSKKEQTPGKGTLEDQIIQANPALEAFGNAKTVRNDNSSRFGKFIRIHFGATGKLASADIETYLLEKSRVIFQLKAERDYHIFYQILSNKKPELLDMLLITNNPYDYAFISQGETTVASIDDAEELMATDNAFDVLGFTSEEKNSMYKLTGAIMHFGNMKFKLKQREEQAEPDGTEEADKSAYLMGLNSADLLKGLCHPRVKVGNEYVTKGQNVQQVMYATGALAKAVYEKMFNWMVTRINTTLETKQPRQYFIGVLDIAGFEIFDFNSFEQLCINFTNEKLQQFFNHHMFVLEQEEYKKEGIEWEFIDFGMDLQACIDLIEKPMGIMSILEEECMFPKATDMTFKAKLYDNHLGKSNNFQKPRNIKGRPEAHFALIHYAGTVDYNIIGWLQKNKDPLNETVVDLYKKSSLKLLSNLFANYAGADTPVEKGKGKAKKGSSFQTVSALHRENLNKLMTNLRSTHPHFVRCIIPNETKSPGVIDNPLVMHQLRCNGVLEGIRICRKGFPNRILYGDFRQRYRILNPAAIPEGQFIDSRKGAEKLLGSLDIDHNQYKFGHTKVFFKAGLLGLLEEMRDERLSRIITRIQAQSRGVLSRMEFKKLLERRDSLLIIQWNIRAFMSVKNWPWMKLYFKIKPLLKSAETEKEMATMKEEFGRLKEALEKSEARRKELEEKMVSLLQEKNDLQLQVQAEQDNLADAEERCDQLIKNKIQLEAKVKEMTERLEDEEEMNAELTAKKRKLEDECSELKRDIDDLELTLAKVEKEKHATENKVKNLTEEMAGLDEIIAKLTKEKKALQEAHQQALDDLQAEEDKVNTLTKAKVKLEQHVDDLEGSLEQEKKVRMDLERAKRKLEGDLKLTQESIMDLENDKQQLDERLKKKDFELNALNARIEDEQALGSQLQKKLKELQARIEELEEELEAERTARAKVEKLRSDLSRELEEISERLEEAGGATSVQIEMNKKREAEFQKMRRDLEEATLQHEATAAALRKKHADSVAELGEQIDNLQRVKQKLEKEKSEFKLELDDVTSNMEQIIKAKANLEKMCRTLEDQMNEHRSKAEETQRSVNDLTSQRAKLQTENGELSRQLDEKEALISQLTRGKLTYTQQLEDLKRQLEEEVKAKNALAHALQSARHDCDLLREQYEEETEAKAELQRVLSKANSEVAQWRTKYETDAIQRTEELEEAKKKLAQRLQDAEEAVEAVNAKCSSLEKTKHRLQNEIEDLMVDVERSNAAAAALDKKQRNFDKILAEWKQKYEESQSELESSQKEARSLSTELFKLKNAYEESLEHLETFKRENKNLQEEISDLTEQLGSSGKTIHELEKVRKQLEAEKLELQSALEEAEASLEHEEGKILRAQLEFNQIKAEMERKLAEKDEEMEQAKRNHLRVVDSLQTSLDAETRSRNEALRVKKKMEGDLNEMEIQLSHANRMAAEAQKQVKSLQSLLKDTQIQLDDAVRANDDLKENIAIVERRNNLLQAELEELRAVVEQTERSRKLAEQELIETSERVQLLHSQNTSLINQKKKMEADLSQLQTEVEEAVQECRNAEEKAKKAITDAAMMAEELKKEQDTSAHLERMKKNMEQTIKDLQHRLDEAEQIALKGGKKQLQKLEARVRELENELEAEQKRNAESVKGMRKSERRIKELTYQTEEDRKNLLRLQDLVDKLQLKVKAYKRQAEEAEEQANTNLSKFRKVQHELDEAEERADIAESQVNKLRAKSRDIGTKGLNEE
How it was run: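 Myofibrils from Yucatan minipig left ventricle; ADP production coupled via PK-LDH to NADH loss, read kinetically at 340 nm every 1.5–2 min for 75 min in PIPES/MgCl2 pH 7.0 buffer. Slopes normalized to vehicle and fit to 4-parameter logistic; values are concentrations giving 75% (inhibition) or 125% (activation) of vehicle activity.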

[2] = system: myosin ATPase, Rabbit Psoas myofibrils; assay: Myofibril ATPase assay, rabbit psoas (skeletal) myofibrils; assay type: biochemical; conditions: concentration required to reduce myosin ATP-ase activity by 25%; Rabbit Psoas Prep pCa 25 GEOM_MEAN
[3] = system: myosin ATPase, Porcine Atria myofibrils; assay: Myofibril ATPase assay, porcine atria myofibrils; assay type: biochemical; conditions: concentration required to reduce myosin ATP-ase activity by 25%; Porcine Atria Prep pCa 25 GEOM_MEAN

Porcine Ventricle EC25 (Y75 value) [1] [µM] | Rabbit Psoas EC25 (Y75 value) [2] [µM] | Porcine Atria EC25 (Y75 value) [3] [µM] | Compound
100 | 2.538 | 1.074 | C[C@@H](NC(=O)Cn1c(=O)[nH]c2ccc(F)c(F)c2c1=O)c1ccc(C#N)nn1 (single isomer, unassigned) [Compound 3]
1.04 | 0.40 | 0.19 | C[C@H](NC(=O)C1(n2c(=O)[nH]c3ccc(F)c(F)c3c2=O)CC1)c1ncc(C#N)cc1F (single isomer, unassigned) [Compound 3013]
100 | 100 | 100 | COCn1c(=O)n(CC(=O)N[C@@H](C)c2ccc(F)cc2F)c(=O)c2cc(F)ccc21 [Compound 402, (S)-N-(1-(2,4-difluorophenyl)ethyl)-2-(6-fluoro-1-(methoxymethyl)-2,4-dioxo-1,4-dihydroquinazolin-3(2H)-yl)acetamide]
100 | 23 | 100 | C[C@H](NC(=O)Cn1c(=O)[nH]c2cccnc2c1=O)c1ccc(F)cc1F [Compound 303, (S)-N-(1-(2,4-difluorophenyl)ethyl)-2-(2,4-dioxo-1,4-dihydropyrido[3,2-d]pyrimidin-3(2H)-yl)acetamide]
